Tests used:
M4 muscarinic receptor = molecular target: T1, M4 muscarinic receptor (Homo sapiens, UniProt P08173); experiment: Functional mobilization of intracellular calcium (FLIPR) in M4-CHO cells; format: cell-based; details: Table 4; for M4 Activity: M4 receptor, calcium mobilization (FLIPR)
T1 construct: expressed in transfected cells; host or cells: CHO (M4-CHO)
T1 sequence (P08173 1-479): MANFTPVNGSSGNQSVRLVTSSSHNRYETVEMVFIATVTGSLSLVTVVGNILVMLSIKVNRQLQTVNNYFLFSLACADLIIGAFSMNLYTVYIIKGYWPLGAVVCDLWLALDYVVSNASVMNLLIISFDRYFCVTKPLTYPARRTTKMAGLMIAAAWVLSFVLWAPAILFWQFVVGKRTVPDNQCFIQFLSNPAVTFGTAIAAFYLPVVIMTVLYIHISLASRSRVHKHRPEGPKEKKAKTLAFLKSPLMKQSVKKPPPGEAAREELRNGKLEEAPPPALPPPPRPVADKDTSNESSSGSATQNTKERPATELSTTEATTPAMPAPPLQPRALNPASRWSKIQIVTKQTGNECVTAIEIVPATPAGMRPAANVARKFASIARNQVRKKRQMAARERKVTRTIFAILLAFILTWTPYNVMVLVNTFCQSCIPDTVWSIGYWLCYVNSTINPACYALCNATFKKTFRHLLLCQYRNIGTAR
Method in brief: (§1)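 Intracellular calcium rise is measured by FLIPR fluorescence over 60 sec in CHO cells carrying human M1 or M4 receptors. Compounds are tested alone as agonists, or pre-incubated 15 min (or co-applied) ahead of carbachol at its EC80 to detect inhibition.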

M1 muscarinic receptor = molecular target: T2, M1 muscarinic receptor (Homo sapiens, UniProt P11229); experiment: Functional mobilization of intracellular calcium (FLIPR) in M1-CHO cells; format: cell-based; details: Table 4; for M1 Activity: M1 receptor, calcium mobilization (FLIPR)
T2 construct: expressed in transfected cells; host or cells: CHO (M1-CHO)
T2 sequence (P11229 1-460): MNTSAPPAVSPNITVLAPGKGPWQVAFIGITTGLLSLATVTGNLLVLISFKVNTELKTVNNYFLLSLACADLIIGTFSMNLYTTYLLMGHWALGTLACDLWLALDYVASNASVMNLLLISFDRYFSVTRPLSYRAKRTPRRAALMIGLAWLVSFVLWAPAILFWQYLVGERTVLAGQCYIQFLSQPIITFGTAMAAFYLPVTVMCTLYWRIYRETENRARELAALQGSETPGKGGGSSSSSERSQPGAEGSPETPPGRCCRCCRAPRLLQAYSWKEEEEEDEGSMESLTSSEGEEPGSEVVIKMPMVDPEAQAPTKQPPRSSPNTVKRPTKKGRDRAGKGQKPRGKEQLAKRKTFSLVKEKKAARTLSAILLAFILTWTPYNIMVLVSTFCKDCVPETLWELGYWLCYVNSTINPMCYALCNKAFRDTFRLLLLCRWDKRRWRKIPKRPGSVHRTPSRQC
Method in brief: as §1

[1] = 100% efficacy is the maximum response obtained with the Carbachol control

Structure (SMILES)	Emax (M4 muscarinic receptor; [1])	M4 Activity (M4 muscarinic receptor)	Emax (M1 muscarinic receptor; [1])	M1 Activity (M1 muscarinic receptor)	M4 Efficacy (M4 muscarinic receptor; [1])	M1 Efficacy (M1 muscarinic receptor; [1])
CCC#CCOC(=O)N1CCC(N2CCC3(CC2)CN(C(C)=O)c2cccc(C)c23)CC1 [compound 825]	< 25%	x (activity was measured to be greater than 5.0 μM)	25 to 100%	xxx (activity was measured to be less than 2.0 μM)	–	–
O=C1CC2(CCN(CC3CC4C=CC3C4)CC2)c2cc(Cl)ccc21 (stereo not shown) [compound 826]	25 to 100%	xxx (activity was measured to be less than 2.0 μM)	25 to 100%	xxx (activity was measured to be less than 2.0 μM)	–	–
CCOC(=O)N1C2CCC1CC(N1CCC3(CC1)CN(C(C)=O)c1c(C)cc(C)cc13)C2 (stereo not shown) [compound 827]	25 to 100%	xxx (activity was measured to be less than 2.0 μM)	25 to 100%	xxx (activity was measured to be less than 2.0 μM)	–	–
CC(=O)NC1CCC2(CCN(CCC3CCCN(C(=O)C(C)(C)C)C3)CC2)c2ccccc21 (stereo not shown) [compound 828]	< 25%	x (activity was measured to be greater than 5.0 μM)	25 to 100%	xxx (activity was measured to be less than 2.0 μM)	–	–
CC(=O)N1CC2(CCN(C3CCN(C(=O)OCC(F)F)CC3)CC2)c2cc(C)ccc21 [compound 829]	25 to 100%	xxx (activity was measured to be less than 2.0 μM)	25 to 100%	xxx (activity was measured to be less than 2.0 μM)	–	–
CC(=O)N[C@H]1CC2(CCN(C3CCCC3C)CC2)c2ccccc21 (stereo partly shown) [compound 830]	25 to 100%	xx (activity was measured to be between 2.0 μM and 5.0 μM)	25 to 100%	x (activity was measured to be greater than 5.0 μM)	–	–
CC(=O)N[C@H]1CCC2(CCN(CCC3CCN(C(C)=O)CC3)CC2)c2ccccc21 [compound 832]	–	xxx (activity was measured to be less than 2.0 μM)	–	xxx (activity was measured to be less than 2.0 μM)	xx (efficacy was calculated to be between 100% and 25%)	xx (efficacy was calculated to be between 100% and 25%)
CC(=O)NC1CCC2(CCN(CCC3CCN(C(C)=O)CC3)CC2)c2ccccc21 (stereo not shown) [compound 833]	25 to 100%	xxx (activity was measured to be less than 2.0 μM)	25 to 100%	xxx (activity was measured to be less than 2.0 μM)	–	–
CC(=O)N[C@H]1CC2(CCN(C34CCCCC3C4)CC2)c2ccccc21 (stereo partly shown) [compound 834]	25 to 100%	xxx (activity was measured to be less than 2.0 μM)	25 to 100%	xxx (activity was measured to be less than 2.0 μM)	–	–
CCOC(=O)N1C2CCC1CC(N1CCC3(CC1)CC(=O)c1ccc(Cl)cc13)C2 (stereo not shown) [compound 836]	25 to 100%	xxx (activity was measured to be less than 2.0 μM)	25 to 100%	xxx (activity was measured to be less than 2.0 μM)	–	–
COc1cccc(-c2cncc(N3CCC(N4CCC5(CC4)CN(C(C)=O)c4ccccc45)CC3)n2)c1 [compound 837]	< 25%	x (activity was measured to be greater than 5.0 μM)	< 25%	x (activity was measured to be greater than 5.0 μM)	–	–
CCOC(=O)N1CCC(N2CCC3(CC2)CN(c2cccc(OC)c2)c2ccc(F)cc23)CC1 [compound 838]	25 to 100%	xxx (activity was measured to be less than 2.0 μM)	25 to 100%	xxx (activity was measured to be less than 2.0 μM)	–	–
Cc1ccc2c(c1)C1(CCN(C3CC4CCC3C4)CC1)CN2C(=O)c1ccncc1 (stereo not shown) [compound 840]	< 25%	x (activity was measured to be greater than 5.0 μM)	< 25%	x (activity was measured to be greater than 5.0 μM)	–	–
O=C(N[C@H]1CC2(CCN(C3CCCCC3)CC2)c2ccccc21)N1CCCC1 [compound 842]	< 25%	xxx (activity was measured to be less than 2.0 μM)	< 25%	x (activity was measured to be greater than 5.0 μM)	–	–
CCOC(=O)N1CC[C@@H](CN2CCC3(CC2)CN(C(C)=O)c2ccccc23)C1 [compound 843]	25 to 100%	xxx (activity was measured to be less than 2.0 μM)	25 to 100%	xxx (activity was measured to be less than 2.0 μM)	–	–
CC#CCN1CC2(CCN(C3CCN(C(=O)OCC)CC3)CC2)c2cc(F)ccc21 [compound 844]	25 to 100%	xxx (activity was measured to be less than 2.0 μM)	25 to 100%	xxx (activity was measured to be less than 2.0 μM)	–	–
CC(=O)N1CC2(CCN(CC3=CCC4C[C@@H]3C4(C)C)CC2)c2cc(F)ccc21 [compound 845]	< 25%	x (activity was measured to be greater than 5.0 μM)	< 25%	x (activity was measured to be greater than 5.0 μM)	–	–
O=C1CC2(CCN(CC3CCCCC3)C2)c2ccc(F)cc21 (stereo not shown) [compound 846]	< 25%	xx (activity was measured to be between 2.0 μM and 5.0 μM)	< 25%	xx (activity was measured to be between 2.0 μM and 5.0 μM)	–	–
CN(C)C(=O)N1CC2(CCN(C[C@H]3CCN(C(=O)OCC(F)F)C3)CC2)c2cc(F)ccc21 [compound 848]	> 100%	xxx (activity was measured to be less than 2.0 μM)	25 to 100%	xxx (activity was measured to be less than 2.0 μM)	–	–
CCOC1CCCCC1N1CCC2(CC1)CN(C(C)=O)c1ccc(F)cc12 (stereo not shown) [compound 849]	< 25%	x (activity was measured to be greater than 5.0 μM)	< 25%	x (activity was measured to be greater than 5.0 μM)	–	–
CCOC(=O)N1CCC(N2CCC3(CC2)CN(C(=O)CCC(C)=O)c2ccc(F)cc23)CC1 [compound 851]	25 to 100%	xxx (activity was measured to be less than 2.0 μM)	25 to 100%	xxx (activity was measured to be less than 2.0 μM)	–	–
CN(C)C(=O)N1CC2(CCN(C[C@H]3CCN(c4nccs4)C3)CC2)c2cc(F)ccc21 [compound 852]	25 to 100%	xxx (activity was measured to be less than 2.0 μM)	25 to 100%	xx (activity was measured to be between 2.0 μM and 5.0 μM)	–	–
CC#CCOC(=O)N1CCC(N2CCC3(CC2)CN(CCOC)c2ccc(F)cc23)CC1 [compound 853]	25 to 100%	xxx (activity was measured to be less than 2.0 μM)	25 to 100%	xxx (activity was measured to be less than 2.0 μM)	–	–
O=C1CCCN1[C@H]1CCC2(CCN([C@H]3CC4CC[C@H](C4)C3)CC2)c2ccccc21 [compound 854]	25 to 100%	xxx (activity was measured to be less than 2.0 μM)	25 to 100%	xxx (activity was measured to be less than 2.0 μM)	–	–
CCOC(=O)N1CCC(N2CCC3(CC2)CN(c2cncnc2)c2ccc(F)cc23)CC1 [compound 855]	25 to 100%	xxx (activity was measured to be less than 2.0 μM)	25 to 100%	xxx (activity was measured to be less than 2.0 μM)	–	–
O=C1CCCN1[C@H]1CCC2(CCN(C[C@@H]3C[C@H]4C=CC3C4)CC2)c2ccccc21 [compound 856]	25 to 100%	xxx (activity was measured to be less than 2.0 μM)	25 to 100%	xxx (activity was measured to be less than 2.0 μM)	–	–
CCOC(=O)N1CCC(N2CCC3(CC2)CN(C(C)=O)c2c(-c4ccccc4)cccc23)CC1 [compound 857]	< 25%	x (activity was measured to be greater than 5.0 μM)	25 to 100%	x (activity was measured to be greater than 5.0 μM)	–	–
CCOC(=O)N1CCC(N2CCC3(CC2)CN(C(C)=O)c2c(CC)cccc23)CC1 [compound 859]	25 to 100%	x (activity was measured to be greater than 5.0 μM)	25 to 100%	x (activity was measured to be greater than 5.0 μM)	–	–
